Reference: PMC13266999, “Designing Antibiotics with Inherent Resistance to Efflux as a Strategy to Revive Discovery against Multidrug-Resistant Pathogens” (Journal of Medicinal Chemistry, 2026)
In brackets after ≈: the same amount, converted by molar mass. Read-outs that look alike come from different tables or passages of the source.

Legend:
[1] = reported values; cited from earlier work
K. pneumoniae = test: MIC (microbroth dilution); format: cell-based, Klebsiella pneumoniae; conditions: Klebsiella pneumoniae, read-out: MIC
Experimental: (§1) All bacteria were maintained on tryptic soy agar (TSA), except Streptococcus spp., which were maintained on Columbia agar plates containing 5% horse blood. […] Bacteria were grown to stationary phase in liquid culture overnight, with shaking at 200 rpm, before being back diluted to the relevant starting concentration for each assay below. MICs were measured by the microbroth dilution method. […] Absorbance at OD600 was read on a CLARIOstar spectrophotometer (BMG Labtech) and the MIC was defined as the minimum concentration of compound where no visible growth was detected. […] MICs were also performed in the presence of the outer membrane permeator, polymyxin b nonapeptide (PMBN) following the same MIC method but with the following variation. The 2-fold dilution series of compound was prepared as above, then 50 μL of PMBN at a final concentration of 30 μg/mL was added to relevant wells, while 50 μL/well of blank media was added to the remaining wells. Bacteria were then added at 50 μL/well for a starting concentration as above. […] The MICs were read and defined as above. All animal procedures were performed by the contract research organization Pharmacology Discovery Services Taiwan in accordance with the Guide for the Care and Use of Laboratory Animals. The procedures were approved by the Institutional Ethics Committee of Pharmacology Discovery Services Taiwan, Ltd. (approval no. AB127662), in compliance with animal welfare legislation in Taiwan.

[2] = tested on: NorA overexpressing strain NCTC 13616; test: Reserpine growth (efflux inhibition) assay; conditions: 0.5x MIC with vs without reserpine
Experimental: Statistical analyses were performed with GraphPad Prism V9.5.0. […] Unpaired t tests were used when comparing two samples in the gyrase assays.

E. coli = test: MIC (microbroth dilution); format: cell-based; conditions: Escherichia coli
Experimental: as §1

Acinetobacter baumannii = test: MIC (microbroth dilution); format: cell-based
Experimental: All bacteria were maintained on tryptic soy agar (TSA), except Streptococcus spp., which were maintained on Columbia agar plates containing 5% horse blood. All bacterial assays were carried out in tryptic soy broth (TSB), except for Streptococcus spp. which were grown in cation-adjusted Mueller Hinton broth containing 2.5% lysed horse blood. Bacteria were grown to stationary phase in liquid culture overnight, with shaking at 200 rpm, before being back diluted to the relevant starting concentration for each assay below. MICs were measured by the microbroth dilution method. […] Absorbance at OD600 was read on a CLARIOstar spectrophotometer (BMG Labtech) and the MIC was defined as the minimum concentration of compound where no visible growth was detected. The compounds were prepared as a DMSO stock and equivalent concentrations of DMSO had no effect on bacterial growth. MICs were also performed in the presence of the outer membrane permeator, polymyxin b nonapeptide (PMBN) following the same MIC method but with the following variation. The 2-fold dilution series of compound was prepared as above, then 50 μL of PMBN at a final concentration of 30 μg/mL was added to relevant wells, while 50 μL/well of blank media was added to the remaining wells. Bacteria were then added at 50 μL/well for a starting concentration as above. Thirty μg/mL of PMBN had no effect on bacterial growth. The MICs were read and defined as above. All animal procedures were performed by the contract research organization Pharmacology Discovery Services Taiwan in accordance with the Guide for the Care and Use of Laboratory Animals. The procedures were approved by the Institutional Ethics Committee of Pharmacology Discovery Services Taiwan, Ltd. (approval no. AB127662), in compliance with animal welfare legislation in Taiwan.

S. aureus [3] = test: Serial passaging, MIC of adapted strains; format: cell-based; conditions: Staphylococcus aureus
Experimental: MICs were performed on the first and 10th passage.

S. aureus [4] = test: MIC (microbroth dilution); format: cell-based, Staphylococcus aureus; conditions: for MIC: Staphylococcus aureus
Method in brief: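 Overnight stationary-phase cultures back-diluted and tested by broth microdilution with 2-fold compound series. MIC is lowest concentration with no visible growth, with OD600 also read. Separate runs included polymyxin B nonapeptide at 30 μg/mL final as outer-membrane permeabilizer.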

A. baumannii strain AYE = test: Time-kill assay; format: cell-based; conditions: 4 × MIC
Experimental: Time-kill assays were performed as defined previously.

Question: With Nc1nc(-n2cc(C(=O)O)c(=O)c3cc(F)c(N4CC(O)C4)c(Cl)c32)c(F)cc1F [delafloxacin] as the compound, how does the plasma protein binding [1] read?
Answer: 84%

Question: Which MIC (K. pneumoniae; M6) does the source give for COc1c(N2CC[C@@H](Nc3ncccn3)C2)c(F)cc2c(=O)c(C(=O)O)cn(C3CC3)c12 [Compound 51, (R)-1-Cyclopropyl-6-fluoro-8-methoxy-4-oxo-7-(3-(pyrimidin-2-ylamino)pyrrolidin-1-yl)-1,4-dihydroquinoline-3-carboxylic acid] here?
Answer: 1 to 2 µg/mL (≈ 2.28 to 4.55 µM)

Question: And the MIC (K. pneumoniae; NCTC13368, NCTC 13368)?
Answer: 4 µg/mL (≈ 9.1 µM)

Question: What about the MIC (K. pneumoniae; TW3) of the same compound?
Answer: 0.5 µg/mL (≈ 1.14 µM)

Question: What about the “efflux liability in reserpine assay” value [2] of the same compound?
Answer: minimal shift

Question: What about the MIC (E. coli; 319238/UR) of the same compound?
Answer: 16 µg/mL (≈ 36.4 µM)

Question: And the MIC (E. coli; LEC006)?
Answer: 0.25 µg/mL (≈ 0.569 µM)

Question: And the MIC (E. coli; LEC007)?
Answer: 0.125 µg/mL (≈ 0.284 µM)

Question: And the MIC (E. coli; LEC077)?
Answer: 4 µg/mL (≈ 9.1 µM)

Question: And the MIC (E. coli; LEC081)?
Answer: 2 µg/mL (≈ 4.55 µM)

Question: And the MIC (E. coli; NCTC10418, NCTC 10418)?
Answer: 0.125 µg/mL (≈ 0.284 µM)

Question: What about the MIC (E. coli; NCTC11954, NCTC 11954) of the same compound?
Answer: 0.125 µg/mL (≈ 0.284 µM)

Question: What about the MIC (E. coli; NCTC12241, NCTC 12241) of the same compound?
Answer: 0.06 µg/mL (≈ 0.137 µM)

Question: What about the MIC (E. coli; NCTC12923, NCTC 12923) of the same compound?
Answer: ≤ 0.125 µg/mL

Question: And the MIC (Acinetobacter baumannii; Acinetobacter baumannii, 86, oxa23)?
Answer: 16 µg/mL (≈ 36.4 µM)

Question: What about the MIC (Acinetobacter baumannii; Acinetobacter baumannii, A601 colS) of the same compound?
Answer: ≤ 0.03 µg/mL

Question: What about the MIC (Acinetobacter baumannii; Acinetobacter baumannii, ATCC17978, ATCC 17978, read-out: MIC) of the same compound?
Answer: ≤ 0.125 µg/mL

Question: What about the MIC (Acinetobacter baumannii; Acinetobacter baumannii, BAA1709, BAA-1709, read-out: MIC) of the same compound?
Answer: 0.06 µg/mL (≈ 0.137 µM)

Question: And the MIC (Acinetobacter baumannii; Acinetobacter baumannii, BAA1710, BAA-1710 (AYE), read-out: MIC)?
Answer: 4 µg/mL (≈ 9.1 µM)

Question: What about the MIC (Acinetobacter baumannii; Acinetobacter baumannii, BAA2093, BAA-2093, read-out: MIC) of the same compound?
Answer: 0.03 to 0.06 µg/mL (≈ 0.0683 to 0.137 µM)

Question: What about the MIC (Acinetobacter baumannii; Acinetobacter baumannii, NCTC10303, NCTC 10303, read-out: MIC) of the same compound?
Answer: 0.06 µg/mL (≈ 0.137 µM)

Question: What about the MIC (Acinetobacter baumannii; Acinetobacter baumannii, NCTC12156, NCTC 12156, read-out: MIC) of the same compound?
Answer: 0.125 µg/mL (≈ 0.284 µM)

Question: And the MIC (Acinetobacter baumannii; Acinetobacter baumannii, NCTC13302, NCTC 13302, oxa24, read-out: MIC)?
Answer: 4 µg/mL (≈ 9.1 µM)

Question: What about the MIC (Acinetobacter baumannii; Acinetobacter baumannii, NCTC13424, NCTC 13424, oxa23, read-out: MIC) of the same compound?
Answer: > 32 µg/mL

Question: What about the MIC (Acinetobacter baumannii; Acinetobacter baumannii, T strain) of the same compound?
Answer: 8 µg/mL (≈ 18.2 µM)

Question: What about the MIC (Acinetobacter baumannii; Acinetobacter baumannii, UKA1, oxa23, read-out: MIC) of the same compound?
Answer: 2 µg/mL (≈ 4.55 µM)

Question: What about the MIC (Acinetobacter baumannii; Acinetobacter baumannii, UKA2, Low resistance, read-out: MIC) of the same compound?
Answer: 4 µg/mL (≈ 9.1 µM)

Question: What about the MIC (Acinetobacter baumannii; Acinetobacter baumannii, UKA9, read-out: MIC) of the same compound?
Answer: 0.06 µg/mL (≈ 0.137 µM)

Question: And the MIC (Acinetobacter baumannii; Acinetobacter baumannii, UKA12, oxa23, read-out: MIC)?
Answer: 2 µg/mL (≈ 4.55 µM)

Question: And the MIC (Acinetobacter baumannii; Acinetobacter baumannii, UKA13, oxa23, read-out: MIC)?
Answer: 2 µg/mL (≈ 4.55 µM)

Question: What about the MIC (Acinetobacter baumannii; Acinetobacter baumannii, UKA15, oxa23, read-out: MIC) of the same compound?
Answer: 2 µg/mL (≈ 4.55 µM)

Question: And the MIC (Acinetobacter baumannii; Acinetobacter baumannii, UKA19, read-out: MIC)?
Answer: 0.25 µg/mL (≈ 0.569 µM)

Question: What about the MIC (Acinetobacter baumannii; Acinetobacter baumannii, W1, read-out: MIC) of the same compound?
Answer: 4 µg/mL (≈ 9.1 µM)

Question: And the MIC (S. aureus [3]; 1199B WT)?
Answer: 0.008 µg/mL

Question: What about the MIC (S. aureus [3]; 1199B adapted to 4 x MIC of Compound 7) of the same compound?
Answer: 0.008 µg/mL

Question: And the MIC (S. aureus [3]; 1199B adapted to 4 x MIC of Compound 46)?
Answer: 0.03 µg/mL

Question: And the MIC (S. aureus [3]; 1199B adapted to 4 x MIC of Compound 50)?
Answer: 0.125 µg/mL

Question: And the MIC (S. aureus [3]; 1199B adapted to 4 x MIC of Compound 51)?
Answer: 0.015 µg/mL

Question: What about the MIC (S. aureus [3]; 1199 WT) of the same compound?
Answer: 0.004 µg/mL

Question: What about the MIC (S. aureus [3]; 1199 adapted to 4 x MIC of Compound 7) of the same compound?
Answer: ≤ 0.008 µg/mL

Question: What about the MIC (S. aureus [3]; 1199 adapted to 4 x MIC of Compound 46) of the same compound?
Answer: ≤ 0.008 µg/mL

Question: And the MIC (S. aureus [3]; 1199 adapted to 4 x MIC of Compound 50)?
Answer: 0.06 µg/mL

Question: What about the MIC (S. aureus [3]; 1199 adapted to 4 x MIC of Compound 51) of the same compound?
Answer: 0.015 µg/mL

Question: And the MIC (S. aureus [3]; NCTC13616, NCTC 13616 WT)?
Answer: 0.125 µg/mL

Question: And the MIC (S. aureus [3]; NCTC13616, NCTC 13616 adapted to 4 x MIC of Compound 7)?
Answer: 0.25 µg/mL

Question: And the MIC (S. aureus [3]; NCTC13616, NCTC 13616 adapted to 4 x MIC of Compound 46)?
Answer: 0.125 µg/mL

Question: What about the MIC (S. aureus [3]; NCTC13616, NCTC 13616 adapted to 4 x MIC of Compound 50) of the same compound?
Answer: 0.25 µg/mL

Question: What about the MIC (S. aureus [3]; NCTC13616, NCTC 13616 adapted to 4 x MIC of Compound 51) of the same compound?
Answer: 0.5 µg/mL

Question: And the “fold more active than moxifloxacin” value (S. aureus [4])?
Answer: 4–8 fold

Question: What about the MIC (S. aureus [4]; ATCC9144, ATCC 9144, read-out: MIC) of the same compound?
Answer: ≤ 0.03 µg/mL

Question: And the MIC (S. aureus [4]; NCTC13277, NCTC 13277, read-out: MIC)?
Answer: 0.125 to 0.25 µg/mL (≈ 0.284 to 0.569 µM)

Question: What about the MIC (S. aureus [4]; NCTC13616, NCTC 13616, read-out: MIC) of the same compound?
Answer: 0.125 µg/mL (≈ 0.284 µM)

Question: And the MIC (S. aureus [4]; SA-1199, read-out: MIC)?
Answer: 0.004 µg/mL (≈ 0.0091 µM)

Question: And the MIC (S. aureus [4]; SA-1199B (NorA-overexpressing))?
Answer: 0.004 µg/mL (≈ 0.0091 µM)

Question: And the time-kill profile (A. baumannii strain AYE)?
Answer: rapid bactericidal activity
